In brackets after ≈: the same amount, converted by molar mass.
Tests used:
E. coli ΔtolC (JW5503) = type: cell-based; details: efflux deficient E. coli ΔtolC
Experimental: (§1) The compounds synthesized, shown in Table 1, were evaluated against Gram-positive and Gram-negative reference strains (S. aureus 29213 and E. coli MG1655, respectively), as well as an efflux deficient E. coli strain (ΔtolC, JW5503).
(§2) Bacterial strains. S. aureus ATCC 29213, E. coli MG1655, E. coli BAA-2340, E. coli BAA-2469, E. coli BAA-2471, E. cloacae BAA-2341, E. cloacae BAA-2468, K. pneumoniae BAA-1705, K. pneumoniae BAA-2342, K. pneumoniae BAA-2470, K. pneumoniae BAA-2472, and K. pneumoniae BAA-2473 were obtained from ATCC. E. coli JW5503 and E. coli JW3596 were obtained from the KEIO Collection. E. cloacae ATCC 29893 was provided by W. van der Donk (UIUC). E. coli AR-0346, E. coli AR-0349, E. coli AR-0493, E. coli AR-0495, and K. pneumoniae AR-0347 were obtained from the CDC and FDA AR Isolate Bank. E. coli F20987, E. coli M66623, E. cloacae S28901.1, K. pneumoniae M14723, K. pneumoniae M67198, K. pneumoniae M67297, K. pneumoniae S20595, K. pneumoniae S47889, A. baumannii W41979, A. baumannii F19521, A. baumannii M13100, and A. baumannii WO22 were obtained from the University of Illinois Chicago Medical School. A. baumannii KB304, A. baumannii KB343, and A. baumannii KB357 were provided by J. Quale.
(§3) Antimicrobial susceptibility tests. Susceptibility testing was performed in biological triplicate, using the micro-dilution broth method as outlined by the Clinical and Laboratory Standards Institute. Bacteria were cultured with cation-adjusted Muller-Hinton broth (Sigma-Aldrich, Cat# 90922) in round-bottom 96-well plates (Corning, Cat# 3788). Human serum (pooled gender, 0.2 μm filtered) was purchased from BioIVT (Hicksville, NY).

E. coli MG1655 = test: Antimicrobial susceptibility test (MIC); type: cell-based
Text: as §2, §3

K. pneumoniae BAA 2472 = test: microbe, parasite or virus in culture; type: cell-based
Experimental: as §1, §2, §3

[1] = test system: two E. coli, four K. pneumoneia, and four A. baumannii strains; test: MIC against Gram-negative clinical isolate challenge panel (ten isolates); type: cell-based
Experimental: as §1, §3

E. coli AR 0048 = test: microbe, parasite or virus in culture; type: cell-based
Experimental: as §3

K. pneumoniae AR 0066 = test: microbe, parasite or virus in culture; type: cell-based
Experimental: as §3

A. baumannii AR 0313 = test: microbe, parasite or virus in culture; type: cell-based
Experimental: as §3

K. pneumoniae AR 0113 = test: microbe, parasite or virus in culture; type: cell-based
Experimental: as §3

A. baumannii AR 0273 = test: microbe, parasite or virus in culture; type: cell-based
Experimental: as §3

K. pneumoniae AR 0560 = test: microbe, parasite or virus in culture; type: cell-based
Experimental: as §3

A. baumannii AR 0299 = test: microbe, parasite or virus in culture; type: cell-based
Experimental: as §3

A. baumannii AR 0033 = test: microbe, parasite or virus in culture; type: cell-based
Experimental: as §3

E. coli AR 0085 = test: microbe, parasite or virus in culture; type: cell-based
Experimental: as §3

S. aureus ATCC 29213 = test: Antimicrobial susceptibility test (MIC), micro-dilution broth; type: cell-based; details: S. aureus ATCC 29213
Text: as §2, §3

A. baumannii FabI = A. baumannii FabI (Acinetobacter baumannii, UniProt D0CAD5); test: biochemical
Experimental: (§4) Mode of Action. To probe the effects of varying ring systems and amine placement on FabI target engagement, the apparent inhibition constants (Ki^app) for select compounds were determined using purified FabI. The goal of these studies was two-fold, to comparatively assess fabimycin, Debio-1452-NH3, and Debio-1452, and to also assess differential activity against the E. coli and A. baumannii versions of FabI. FabI from E. coli and A. baumannii were recombinantly expressed and purified, and the ability for each compound to inhibit the activity of these enzymes was evaluated using a standard FabI enzyme assay.
In vitro FabI inhibition assay. NADH (Sigma-Aldrich, Cat# N8129) and crotonoyl-CoA (Sigma-Aldrich, Cat# 28007) were both diluted into activity buffer [100 mM potassium glutamate (pH 7.8)], and working solution was dispensed into two columns of round-bottom 96-well plate (330 μL per well). Inhibitors, dissolved in DMSO at 200× final concentration, were added to each well via multichannel pipette (2.48 μL per well). After thorough mixing, this mixture was transferred to UV-transparent plate (UV-STAR half-area 96-well plate, Greiner Bio-One, Cat#675801, 100 μL per well, three technical replicates per inhibitor concentration). Plate was placed in plate-reader (SpectraMax 190, Molecular Devices) under temperature control (25° C.), and temperature was allowed to equilibrate. Fresh aliquot of enzyme from −80° C. was thawed on ice and diluted in activity buffer. Enzyme working solution was added to plate (50 μL per well, 20 nM enzyme final). After shaking for 5 s, reaction progress was monitored by absorbance at 340 nm every 15 s for 90 min. Linear portion of reaction progress curve was fit using plate-reader software (SoftMax Pro 7.0). Percent activity was calculated relative to DMSO-only and no-enzyme controls in each plate. Percent activity curves were fit to Morrison's quadratic using Graphpad Prism 6.0 to obtain apparent Ki.

HERG = HERG (Homo sapiens (Human), UniProt Q12809); test: cell-based
H. sapiens HFF-1 = test: In-vitro cytotoxicity; type: cell-based
H. sapiens A549 = test: In-vitro cytotoxicity; type: cell-based
Plasma protein binding [2] = details: human, plasma
Plasma protein binding [3] = details: mouse, plasma
E. coli FabI = E. coli FabI (Escherichia coli (strain K12), UniProt P0AEK4); test: In vitro FabI inhibition assay; type: biochemical
Experimental: as §4
In vitro FabI inhibition assay. NADH (Sigma-Aldrich, Cat# N8129) and crotonoyl-CoA (Sigma-Aldrich, Cat# 28007) were both diluted into activity buffer [100 mM potassium glutamate (pH 7.8)], and working solution was dispensed into two columns of round-bottom 96-well plate (330 μL per well). […] Plate was placed in plate-reader (SpectraMax 190, Molecular Devices) under temperature control (25° C.), and temperature was allowed to equilibrate. […] After shaking for 5 s, reaction progress was monitored by absorbance at 340 nm every 15 s for 90 min. Linear portion of reaction progress curve was fit using plate-reader software (SoftMax Pro 7.0). Percent activity was calculated relative to DMSO-only and no-enzyme controls in each plate. […]

IMR90 = test: Toxicity screen against mammalian cell lines (72 h), Alamar Blue; type: cell-based
Experimental: Cell culture. IMR90 cells were obtained from ATCC. IMR90 cells were grown in EMEM with 10% fetal bovine serum (Gemini Benchmark, Cat# 100-106), 100 U/mL penicillin, and 100 μg/mL streptomycin. All cells were cultured at 37° C. in a 5% CO2 environment. Media was prepared by the Univeristy of Illinois School of Chemical Sciences Cell Media Facility. Sex and age of cell lines: IMR90 ([…]).
Cell viability. Cells seeded (IMR90: 5,000 cells/well) a 96-well plate (Greiner Bio-One, Cat# 655180) and were allowed to attach overnight. […] Raptinal (100 μM) was used as a dead control. After 24 h post-treatment, media was exchanged with compound-free media. […] Stock Alamar Blue solution [10 μL, 440 μM resazurin (Sigma-Aldrich, Cat# R7017) in sterile 1×PBS] was added to each well, and plate was incubated […]. Conversion of Alamar Blue was measured with plate reader (SpectraMax M3, Molecular Devices) by fluorescence (ex 555 nm, em 585 nm, cutoff 570 nm, autogain). Percent death was determined by normalizing to DMSO-treated cells and raptinal-treated cells.

Hep G2 = test: Toxicity screen against mammalian cell lines (72 h); type: cell-based
[4] = Maximal tolerated dose (MTD) in mice
Experimental: Mouse MTD of Debio-1452-NH3. The protocol was approved by the IACUC at the University of Illinois at Urbana-Champaign (Protocol Number:16144). In these studies, 10- to 12-week-old female C57BL/6 mice purchased from Charles River were used. The maximum tolerate dose (MTD) of single compound was determined first. Debio-1452 amine analogues were formulated in 20% sulfobutyl ether β-cyclodextrin in sterile water. Debio-1452-NH3 (1), and compounds 2 and 3 were given by IP injection and mice were monitored for signs of toxicity for 2 weeks (single dose). For multiple dose, the compound was given by daily IP for 5 consecutive days and mice were monitored for signs of toxicity for 1 month. MTD was the highest dosage with acceptable toxicity (e.g. <20% weight loss). Single dose MTDs were initially determined. […] The MTD of Debio-1452-NH3 (1) was used to inform the dosing schedule used in subsequent efficacy studies.

[5] = female, C57BL/6, mouse, in vivo

Sequence of HERG (Q12809 whole entry): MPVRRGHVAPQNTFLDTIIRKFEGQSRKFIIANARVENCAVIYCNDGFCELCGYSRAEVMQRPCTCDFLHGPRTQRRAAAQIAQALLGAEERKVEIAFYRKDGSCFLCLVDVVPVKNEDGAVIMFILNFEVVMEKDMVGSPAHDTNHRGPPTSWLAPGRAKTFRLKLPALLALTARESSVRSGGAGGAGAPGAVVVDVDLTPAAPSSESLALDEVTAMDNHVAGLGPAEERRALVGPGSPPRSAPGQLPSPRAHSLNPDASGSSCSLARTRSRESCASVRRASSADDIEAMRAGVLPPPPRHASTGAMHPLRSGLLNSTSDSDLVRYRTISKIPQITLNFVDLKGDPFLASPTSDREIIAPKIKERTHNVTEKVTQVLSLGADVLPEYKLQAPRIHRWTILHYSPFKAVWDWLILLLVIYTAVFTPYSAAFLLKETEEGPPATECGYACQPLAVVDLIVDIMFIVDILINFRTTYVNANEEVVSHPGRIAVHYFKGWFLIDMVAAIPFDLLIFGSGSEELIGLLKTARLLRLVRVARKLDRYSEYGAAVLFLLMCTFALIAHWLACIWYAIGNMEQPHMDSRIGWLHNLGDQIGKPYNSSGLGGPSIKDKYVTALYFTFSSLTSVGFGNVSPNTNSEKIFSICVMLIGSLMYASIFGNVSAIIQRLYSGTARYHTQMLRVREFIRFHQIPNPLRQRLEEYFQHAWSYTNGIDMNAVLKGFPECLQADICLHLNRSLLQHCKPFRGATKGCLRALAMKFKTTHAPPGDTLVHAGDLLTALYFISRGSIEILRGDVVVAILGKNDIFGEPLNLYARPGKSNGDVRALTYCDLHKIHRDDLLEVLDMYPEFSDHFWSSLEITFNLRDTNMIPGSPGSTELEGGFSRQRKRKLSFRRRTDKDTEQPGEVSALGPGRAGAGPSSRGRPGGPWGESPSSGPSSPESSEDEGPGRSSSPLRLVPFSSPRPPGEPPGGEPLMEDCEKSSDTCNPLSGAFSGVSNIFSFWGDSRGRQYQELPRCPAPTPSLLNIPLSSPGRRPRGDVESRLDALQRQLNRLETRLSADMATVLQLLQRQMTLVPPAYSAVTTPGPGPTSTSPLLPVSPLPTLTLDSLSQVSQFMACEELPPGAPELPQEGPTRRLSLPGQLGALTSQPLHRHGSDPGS
Sequence of A. baumannii FabI (D0CAD5 1-288): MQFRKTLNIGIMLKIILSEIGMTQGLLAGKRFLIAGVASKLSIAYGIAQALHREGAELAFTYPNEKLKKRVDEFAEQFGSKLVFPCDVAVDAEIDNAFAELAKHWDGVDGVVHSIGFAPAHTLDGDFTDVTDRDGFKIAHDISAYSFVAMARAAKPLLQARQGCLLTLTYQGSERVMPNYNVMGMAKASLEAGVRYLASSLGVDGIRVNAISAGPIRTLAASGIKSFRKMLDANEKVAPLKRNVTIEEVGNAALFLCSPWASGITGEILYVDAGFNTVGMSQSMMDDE
Sequence of E. coli FabI (P0AEK4 whole entry): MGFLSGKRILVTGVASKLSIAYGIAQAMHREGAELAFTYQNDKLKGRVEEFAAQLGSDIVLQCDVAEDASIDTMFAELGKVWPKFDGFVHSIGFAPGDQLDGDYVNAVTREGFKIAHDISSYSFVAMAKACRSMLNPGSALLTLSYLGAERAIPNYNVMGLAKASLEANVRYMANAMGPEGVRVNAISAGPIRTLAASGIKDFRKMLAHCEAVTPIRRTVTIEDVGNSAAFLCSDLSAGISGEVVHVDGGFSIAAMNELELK

Cc1c(CN(C)C(=O)/C=C/c2cnc3c(c2)CCC(N)C(=O)N3)oc2ccccc12 (racemic) [(±)-11]
MIC E. coli ΔtolC (E. coli ΔtolC (JW5503)): 0.031 µg/mL (≈ 0.0766 µM)
MIC E. coli MG1655 (E. coli MG1655; E. coli MG1655): 4 µg/mL (≈ 9.89 µM)
MIC K. pneumoniae BAA 2472 (K. pneumoniae BAA 2472; clinical isolate): 8 µg/mL (≈ 19.8 µM)
concentration at which all strains of the clinical isolate challenge panel are inhibited [1]: ≤ 8 µg/mL
MIC E. coli AR 0048 (E. coli AR 0048; clinical isolate): 4 µg/mL (≈ 9.89 µM)
MIC K. pneumoniae AR 0066 (K. pneumoniae AR 0066; clinical isolate): 8 µg/mL (≈ 19.8 µM)
MIC A. baumannii AR 0313 (A. baumannii AR 0313; clinical isolate): 8 µg/mL (≈ 19.8 µM)
MIC K. pneumoniae AR 0113 (K. pneumoniae AR 0113; clinical isolate): 8 µg/mL (≈ 19.8 µM)
MIC A. baumannii AR 0273 (A. baumannii AR 0273; clinical isolate): 8 µg/mL (≈ 19.8 µM)
MIC K. pneumoniae AR 0560 (K. pneumoniae AR 0560; clinical isolate): 8 µg/mL (≈ 19.8 µM)
MIC A. baumannii AR 0299 (A. baumannii AR 0299; clinical isolate): 4 µg/mL (≈ 9.89 µM)
MIC A. baumannii AR 0033 (A. baumannii AR 0033; clinical isolate): 4 µg/mL (≈ 9.89 µM)
MIC E. coli AR 0085 (E. coli AR 0085; clinical isolate): 4 µg/mL (≈ 9.89 µM)
MIC S. aureus 29213 (S. aureus ATCC 29213): 0.016 µg/mL (≈ 0.0396 µM)

Cc1c(CN(C)C(=O)/C=C/c2cnc3c(c2)CC(N)C(=O)N3)oc2ccccc12 (racemic) [Debio-1452-NH3, (E)-3-(6-amino-7-oxo-5,6,7,8-tetrahydro-1,8-naphthyridin-3-yl)-N-methyl-N-((3-methylbenzofuran-2-yl)methyl)acrylamide]
Ki (A. baumannii FabI): 0.114 µM
IC50 (HERG): 5.7 µM
inhibition at 30 µM (H. sapiens HFF-1): 11 ± 2%
IC50 (H. sapiens HFF-1; cytotoxicity): 63 ± 33 µM
inhibition at 30 µM (H. sapiens A549): 29 ± 4%
IC50 (H. sapiens A549; cytotoxicity): 68 ± 4 µM
fraction unbound (Plasma protein binding [2]): 0.107
fraction unbound (Plasma protein binding [3]): 0.055
Ki (E. coli FabI): 0.0035 ± 0.0005 µM

Cc1c(CN(C)C(=O)/C=C/c2cnc3c(c2)CC(N)C(=O)N3)oc2ccccc12.Cl (stereo not drawn) [Debio-1452-NH3, (E)-3-(6-amino-7-oxo-5,6,7,8-tetrahydro-1,8-naphthyridin-3-yl)-N-methyl-N-((3-methylbenzofuran-2-yl)methyl)acrylamide, reference compound]
MIC E. coli ΔtolC (E. coli ΔtolC (JW5503)): 0.062 µg/mL
MIC (E. coli MG1655; Escherichia coli, MG1655): 4 µg/mL
MIC (K. pneumoniae BAA 2472; Klebsiella pneumoniae, BAA2472, read-out: MIC K. pneumoniae BAA 2472, clinical isolate): 16 µg/mL
IMR90 % Cell Death (IMR90; 30 μM): 18 ± 4%
IMR90 % Cell Death (IMR90; 100 μM): 69 ± 5%
MIC (E. coli AR 0048; Escherichia coli, AR0048, read-out: MIC E. coli AR 0048, clinical isolate): 32 µg/mL
MIC (K. pneumoniae AR 0066; Klebsiella pneumoniae, AR0066, read-out: MIC K. pneumoniae AR 0066, clinical isolate): 32 µg/mL
MIC (A. baumannii AR 0313; Acinetobacter baumannii, AR0313, read-out: MIC A. baumannii AR 0313, clinical isolate): 32 µg/mL
MIC (K. pneumoniae AR 0113; Klebsiella pneumoniae, AR0113, read-out: MIC K. pneumoniae AR 0113, clinical isolate): 32 µg/mL
MIC (A. baumannii AR 0273; Acinetobacter baumannii, AR0273, read-out: MIC A. baumannii AR 0273, clinical isolate): 32 µg/mL
MIC (K. pneumoniae AR 0560; Klebsiella pneumoniae, AR0560, read-out: MIC K. pneumoniae AR 0560, clinical isolate): 32 µg/mL
MIC (A. baumannii AR 0299; Acinetobacter baumannii, AR0299, read-out: MIC A. baumannii AR 0299, clinical isolate): 32 µg/mL
MIC (A. baumannii AR 0033; Acinetobacter baumannii, AR0033, read-out: MIC A. baumannii AR 0033, clinical isolate): 32 µg/mL
MIC (E. coli AR 0085; Escherichia coli, AR0085, read-out: MIC E. coli AR 0085, clinical isolate): 16 µg/mL
Hep G2 % Cell Death (Hep G2; 30 μM): 29 ± 8%
Hep G2 % Cell Death (Hep G2; 100 μM): 77 ± 3%
well tolerated daily dosing for 5 consecutive days ([4]; daily IP, 5 consecutive days, female C57BL/6 mice): 50 mg/kg
MTD at 2 weeks [4, 5]: 50 mg/kg
MTD at 5 d [4, 5]: 50 mg/kg
Multi-day single-dose MTD ([4]; female, C57BL/6, mouse, in vivo, 5 d): 50 mg/kg, 5 d
MTD at 2 weeks ([4]; female, C57BL/6, mouse, in vivo, ip): 50 mg/kg
MIC (S. aureus ATCC 29213; Staphylococcus aureus, ATCC29213, read-out: MIC S. aureus 29213): 0.031 µg/mL
